What all share (assay type): cell-based, human
Data set [1] relates to U87 cells. The data set is described as follows: Flow cytometric analysis of apoptosis (fractional DNA content, annexin V binding). The protocol: Fractional DNA content: U87 cells (10^5) were plated overnight at 37° C. with 5% CO2. The cells were then treated with TNFα (10 ng/mL) and/or TMZ (100 μM). At 72 h the cells were washed in PBS and fixed in ice-cold 70% (v/v) ethanol. The cells were washed twice and incubated in RNase (1 mg/mL) for 30 m at 37° C., then incubated in propidium iodide (PI) solution (100 ug/mL) for […] at 4° C. Flow cytometric analysis was performed on a FACSort instrument (Becton Dickinson Immunocytometry Systems, San Jose, Calif.), and the data were analyzed using the CellQuest software (Becton Dickinson).
Annexin V binding (van Engeland, M. et al. (1998) Cytometry 31(1):1-9): At 72 h cells were washed in PBS and incubated in the dark for 15 m with binding buffer containing 5 μl of Annexin V-FITC and 5 μl of PI (Annexin V-FITC apoptosis detection kit II). The data was analyzed by Flowjo analysis software (Tree Star Inc., Ashland, Oreg.).
Cells were either un-transfected or co-transfected with pRC-CMV-p65 or pRC-CMV in the presence of a GFP plasmid at a ratio of 4:1. Under these conditions, cells expressing GFP also expressed the co-transfected plasmid (Tang, F. et al. (2002) Mol Cell Biol 22:8571-8579). Cells were then left untreated or treated as described in the figure legends. At 72 h cells were washed in PBS and incubated in the dark for 15 m with binding buffer containing 5 μl of Annexin V-FITC and 5 μl of Propidium iodide (PI). In transfected cells, annexin V binding was assessed in GFP positive cells. Data was analyzed by Flowjo analysis software (Tree Star Inc., Ashland, Oreg., USA) as described in U.S. Provisional Application No. 60/604,251 (Yamini, B. et al. (2004) Cancer Res 64:6381-6384).
On the technique in general: Flow cytometry measures light scatter and fluorescence of single cells or particles in a stream.

For a further data set, the system named is JNK. Put plainly: JNK phosphorylation (activation), Western blot. The procedure:
(§1) 20 μg of whole U87 cell (or nuclear) lysate was subjected to sodium dodecyl sulfate (SDS)-polyacrylamide gel electrophoresis (PAGE). Following electro-transfer, Immobilon-P membranes (Millipore Corp. Burlington, Mass., USA.) were probed with primary polyclonal antibody against IκBα, phospho-Ser32-IκBα, SAPK/JNK, phospho-Thr183/Tyr185-SAPK/JNK, p65, phospho-Ser536-p65 (Cell Signaling Technology Inc. Beverly, […]., USA) diluted 1:1000 overnight at 4° C. Anti-rabbit IgG HRP-linked secondary antibody (Cell Signaling Technology) was diluted 1:1000 in blocking buffer and applied for 1 h at room temperature. Immunoreactive bands were detected by SuperSignal enhanced chemiluminescence (ECL) (Pierce, Rockford, Ill., USA) and exposed to Kodak X-Omat film.

For data set [2], the system named is U87 cells. Put plainly: Measurement of superoxide production (hydroethidine oxidation). To be noted: P<0.05 vs TNFα+TMZ. The protocol: U87 cells were plated at a density of 10^6 cells in flat-bottom 6-well tissue culture plates, incubated overnight and treated as indicated in the figure legend. Cells were then washed, resuspended in PBS and 1 μL of 10 mM hydroethidine (HE) per mL cell suspension (10 μM final concentration) was added and incubated for 5 m at 37° C. Cells were harvested and analyzed on a flow cytometer (FACSort; BD Biosciences) with excitation at 488 nm and emission collected using a 620-670 nm […] long-pass filter. Data was analyzed by Flowjo software.

For data set [3], the system named is U87 cells. Put plainly: U87 cell viability (Trypan Blue dye exclusion, MTS). The protocol:
Trypan Blue dye exclusion method was employed. 10^4 U87 cells were plated and incubated at 37° C. overnight. Subsequently, the cells were contacted with media containing TNFα (10 ng/mL) and/or TMZ (100 μM), incubated for 3 h, and washed. […] All of the studies were performed in triplicate.

The test system of the next data set is IκBα. Put plainly: TNFα-induced IκBα degradation and phosphorylation (Western blot / kinase assay). The note with it: at 15 m, TNFα with or without TMZ pretreatment. The procedure: Cells were then washed with 10 mL ice-cold PBS, scraped from the dish, and pelleted by centrifugation at 1000 rpm for 5 m at 4° C. Cell pellets were resuspended in 400 μl of ice-cold buffer A (10 mM HEPES, pH 7.9; 10 mM KCl; 0.1 mM EDTA; 1 mM DTT; 0.5 mM phenylmethysulfonylfluoride [PMSF]; 1 μg/mL leupeptin; 5 μg/mL aprotinin) and allowed to swell on ice for 15 m. Following the addition of 25 μl of 10% NP-40, the suspension was vortexed for 10 s and centrifuged at 14,500 rpm for 1 m at 4° C. Nuclei were resuspended in 50 μl of ice-cold buffer B (20 mM HEPES, pH 7.9; […]; 1 mM EDTA; 1 mM DTT; 1 mM PMSF; 25% glycerol; 1 μg/mL leupeptin; 5 μg/mL aprotinin) and incubated on ice for 15 m. The nuclear suspension was then centrifuged at 14,500 rpm for 5 m at 4° C. and the supernatant containing the nuclear proteins was transferred to a clean tube. Protein concentrations for each sample were determined by the Bradford method (Bio-Rad, Richmond, Calif., USA) and were adjusted to 2 μg/μl by the addition of buffer B.
as §1
IκK was immunoprecipitated from treated U87 cell extracts with anti-IKKβ antibody, (Santa Cruz Biotechnology, Santa Cruz, Calif., USA). […] Kinase activity was quantified using a Phosphoimager and Equal protein loading determined by immunoblotting with anti-IκKβ antibody (Upstate USA, Charlottesville, Va., USA). […]
For orientation: In western blotting, separated proteins are transferred to a membrane and probed.

Where [4] appears, read: pretreatment before TMZ and TNFα.

Where a SMILES comes first, the peptide text is derived from it. The star is where a group is joined. Cbz = O=C(OCc1ccccc1)*; CH2F = FC*

As for `CC(=O)N[C@@H](CS)C(=O)O` [NAC, N-acetylcystein], in the data set on U87 cells [1] (U87), the “effect on cell death, pretreatment alone” value is listed as “minimal effects”. Also, the “apoptosis induced by combination TMZ and TNFα, inhibitor pretreatment” value with U87 cells [1] (annexin V binding, U87, P<0.01 vs TNFα+TMZ) is “significantly reversed”. The “reduction of delayed JNK activation induced by combination TMZ and TNFα” value in the data set on JNK (U87, NAC pretreatment) is 1.7 fold. Also, the “transient JNK activation, NAC pretreatment” value in the data set on JNK (U87, TMZ and TNFα) was “without affecting”. Further, in the data set on U87 cells [2], the “increase in O2^.− induced by TMZ and TNFα, NAC pretreatment” value was “significantly inhibited”.
For the molecule TNFα, in the data set on U87 cells [3] (10 ng/mL TNFα and/or 100 μM TMZ), the “effect on U87 cell viability” value was “Minimal effects”. In addition, in the data set with U87 cells [1] (fractional DNA content, 72 h, TNFα 10 ng/mL and/or TMZ 100 μM), the “U87 cell apoptosis (sub-G1 hypodiploid/apoptotic peak)” value is listed as “minimal effect”. In addition, in the data set with IκBα, the “degradation of IκBα” value is “complete degradation”. Besides, the “JNK phosphorylation (activation)” value in the data set with JNK (glioma cells) is listed as “transiently increased”.
Regarding `COC(=O)C[C@H](NC(=O)[C@H](C)NC(=O)[C@@H](NC(=O)OCc1ccccc1)C(C)C)C(=O)CF` [zVAD] (Cbz-Val-Ala-Asp(OMe)-CH2F), the “cytotoxicity induced by combined treatment with TMZ and TNFα, inhibitor pretreatment” value in the data set on U87 cells [3] (setting [4]) was “completely reversed”. Besides, the “JNK activation induced by TMZ and TNFα, inhibitor pretreatment” value in the data set with JNK (setting [4]) is on record as “did not inhibit”.

(Values after US20110091375A1, “USE OF THE COMBINATION COMPRISING TEMOZOLOMIDE AND TNF-ALPHA FOR TREATING GLIOBLASTOMA” (THE UNIVERSITY OF CHICAGO, priority 2004, published 2011).)
